Experimental findings from patent US20060019966A1, “Method for treating nervous system disorders and conditions” (Wyeth, priority 2004, published 2006) are described below.

The target in one assay is T1, hSERT (Homo sapiens, UniProt P31645).
T1 construct: The methods for 5-HT functional reuptake using the JAR cell line; host or cells: JAR (human placental choriocarcinoma), staurosporine-stimulated
The assay can be described thus: Serotonin (5-HT) uptake assay, hSERT function uptake. The format is cell-based. The conditions noted are these: JAR cells, [3H]5-HT uptake. The procedure:
(§1) The JAR cell line (human placental choriocarcinoma) may be purchased from ATCC (Cat. No. HTB-144). […] For all assays, cells may be plated in Wallac 96-well sterile plates (PerkinElmer, Cat. No. 3983498).
The methods for 5-HT functional reuptake using the JAR cell line is modified using a previous literature report (Prasad, et al., Placenta, 1996. 17(4): 201-7). […] On day 2, cells are stimulated with staurosporine (40 nM) to increase the expression of the 5-HT transporter. On day 3, cells are removed from the cell incubator two hours prior to assay and maintained at room temperature to equilibrate the growth medium to ambient oxygen concentration. […] Data from these wells are used to define non-specific 5-HT uptake (minimum 5-HT uptake). Test compounds are prepared in DMSO (10 mM) and diluted in assay buffer according to test range (1 to 1,000 nM). Twenty-five microliters of assay buffer (maximum 5-HT uptake) or test compound are added directly to triplicate wells containing cells in 200 μl of assay buffer. The cells are incubated with the compound for 10 minutes (37° C.). To initiate the reaction, [^3H]hydroxytryptamine creatinine sulfate diluted in assay buffer is delivered in 25 μl aliquots to each well for a final test concentration of 15 nM. The cells are incubated with the reaction mixture for 5 minutes at 37° C. The 5-HT uptake reaction is terminated by decanting the assay buffer.

Assay [1] addresses T2, recombinant human dopamine transporter (hDAT) (Homo sapiens, UniProt Q01959).
T2 construct: purchased PerkinElmer RBHDATM
The assay can be described thus: Dopamine uptake transporter binding assay (3H-WIN 35,428). To be noted: inhibition of 3H-WIN 35,428 binding to hDAT membranes.

For a further assay, the target named is T3, hNET (Homo sapiens, UniProt P23975).
T3 construct: expressed in transfected cells; host or cells: MDCK-Net6 (MDCK cells stably transfected with hNET)
T3 sequence (P23975 whole entry): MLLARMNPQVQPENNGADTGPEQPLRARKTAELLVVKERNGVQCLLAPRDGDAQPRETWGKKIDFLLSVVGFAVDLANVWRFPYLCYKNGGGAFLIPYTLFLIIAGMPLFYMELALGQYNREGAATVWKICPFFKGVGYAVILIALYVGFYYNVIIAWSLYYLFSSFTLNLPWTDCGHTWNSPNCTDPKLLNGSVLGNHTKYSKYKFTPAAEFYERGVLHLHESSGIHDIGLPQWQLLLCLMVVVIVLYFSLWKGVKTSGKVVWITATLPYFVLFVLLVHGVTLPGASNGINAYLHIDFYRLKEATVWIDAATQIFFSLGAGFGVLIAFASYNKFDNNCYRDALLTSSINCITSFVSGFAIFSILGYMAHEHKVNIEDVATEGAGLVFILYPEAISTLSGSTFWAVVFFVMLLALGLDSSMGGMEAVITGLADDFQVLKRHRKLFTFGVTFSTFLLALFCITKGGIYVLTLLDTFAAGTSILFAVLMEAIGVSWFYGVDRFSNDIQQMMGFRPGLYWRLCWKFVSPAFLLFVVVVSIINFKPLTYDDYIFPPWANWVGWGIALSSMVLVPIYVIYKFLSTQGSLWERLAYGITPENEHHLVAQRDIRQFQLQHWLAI
In words: Norepinephrine (NE) uptake assay, hNET function uptake. Format: cell-based. The conditions noted are these: MDCK-Net6 cells, [3H]NE uptake. As to the method: as §1
Test compounds are prepared in DMSO (10 mM) and diluted in assay buffer according to test range (1 to 10,000 nM). Twenty-five microliters of assay buffer (maximum NE uptake) or test compound are added directly to triplicate wells containing cells in 200 μl of assay buffer. […] To initiate the NE uptake, [^3H]NE diluted in assay buffer (120 nM final assay concentration) is delivered in 25 μl aliquots to each well and the plates is incubated for 5 minutes (37° C.).

In assay [2] the test system is tail skin temperature (TST) in ovariectomized (OVX) rats. The assay can be described thus: Telemetry rat model of ovariectomy-induced thermoregulatory dysfunction. To be noted: 30 mg/kg, sc, single dose. Format: in vivo. From the text:
Telemetry model: This model has been modified from a previously reported protocol describing estrogen regulation of diurnal tail skin temperature (TST) patterns (Berendsen, et al., European Journal of Pharmacology, 2001, 419(1): 47-54). […] In ovariectomized (OVX) rats, TST is elevated over the entire 24-hour period, thus the usual decrease in TST during the active (dark) phase is lost, thus, a compound's ability to restore this lowering of TST during the active phase was examined. […] After a 7-day recovery period, TST readings were continuously recorded for the remainder of the study. Tail skin temperature readings were collected from each animal every 5 minutes with values obtained over a 10 second sampling period. The day before test day, an average baseline TST value was calculated for each animal by averaging temperature readings recorded during the 12 hour active (dark) phase. […]
Statistical analysis: Evaluation of a compound's ability to restore normal lowering of TST in the telemetry model was analyzed using hourly TST values calculated for each animal by averaging the 12 temperature readings obtained every 5 minutes over that recording time. […]

T2 sequence (Q01959 whole entry): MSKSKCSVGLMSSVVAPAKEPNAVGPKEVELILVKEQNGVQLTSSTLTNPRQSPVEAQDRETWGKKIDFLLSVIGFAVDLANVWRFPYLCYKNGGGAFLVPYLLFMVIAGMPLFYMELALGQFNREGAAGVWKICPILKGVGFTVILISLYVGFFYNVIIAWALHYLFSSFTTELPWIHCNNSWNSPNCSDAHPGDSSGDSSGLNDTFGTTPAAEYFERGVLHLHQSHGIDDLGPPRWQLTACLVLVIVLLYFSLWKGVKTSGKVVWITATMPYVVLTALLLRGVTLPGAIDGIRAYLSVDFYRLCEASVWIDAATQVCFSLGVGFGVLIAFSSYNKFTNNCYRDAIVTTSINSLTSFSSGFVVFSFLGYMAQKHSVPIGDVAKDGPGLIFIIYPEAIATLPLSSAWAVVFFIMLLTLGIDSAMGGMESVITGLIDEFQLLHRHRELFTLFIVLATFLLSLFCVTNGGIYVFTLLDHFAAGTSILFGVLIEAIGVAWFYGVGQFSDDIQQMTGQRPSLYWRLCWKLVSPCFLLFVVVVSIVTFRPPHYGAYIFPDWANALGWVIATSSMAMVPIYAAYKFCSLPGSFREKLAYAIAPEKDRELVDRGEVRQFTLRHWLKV
T1 sequence (P31645 whole entry): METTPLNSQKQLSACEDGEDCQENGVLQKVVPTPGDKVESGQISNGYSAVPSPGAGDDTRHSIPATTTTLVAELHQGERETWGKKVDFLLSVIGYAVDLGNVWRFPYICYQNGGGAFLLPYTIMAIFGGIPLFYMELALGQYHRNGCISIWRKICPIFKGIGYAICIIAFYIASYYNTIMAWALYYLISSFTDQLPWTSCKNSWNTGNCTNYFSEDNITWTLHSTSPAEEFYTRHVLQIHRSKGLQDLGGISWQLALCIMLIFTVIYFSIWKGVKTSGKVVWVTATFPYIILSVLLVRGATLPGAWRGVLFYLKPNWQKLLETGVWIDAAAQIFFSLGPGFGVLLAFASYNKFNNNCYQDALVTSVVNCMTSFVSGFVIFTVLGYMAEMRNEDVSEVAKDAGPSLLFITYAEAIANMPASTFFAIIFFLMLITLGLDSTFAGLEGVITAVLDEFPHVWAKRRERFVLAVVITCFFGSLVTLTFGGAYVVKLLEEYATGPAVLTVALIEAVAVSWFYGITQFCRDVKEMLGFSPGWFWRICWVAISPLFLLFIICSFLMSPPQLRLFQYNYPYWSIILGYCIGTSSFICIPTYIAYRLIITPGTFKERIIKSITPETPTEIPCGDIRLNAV

As for `Cc1ccc(C23CNCC2C3)cc1` (single isomer, unassigned; (-)) [(−)-1-(4-methylphenyl)-3-azabicyclo[3.1.0]hexane], the EC50 on hSERT is 0.977 µM; at hNET, 1.18 µM. Besides, in assay [1], the “hDAT binding (% I at 10 μM)” value is on record as 55%. In addition, in assay [2], the “effect on tail skin temperature (TST)” value is given as “restored normal TST”.

For the molecule `Fc1ccc(C(OCCN2CCN(CCCc3ccccc3)CC2)c2ccc(F)cc2)cc1` [1-[2-[bis(4-fluorophenyl)methoxy]ethyl]-4-(3-phenylpropyl)piperazine, reference compound], the “effect on tail skin temperature (TST)” value in assay [2] is recorded as “restored normal TST”.

What is called EC50 is the concentration at which the effect is half-maximal. A high value points to lower potency in that assay.
